Reference: ChEMBL document CHEMBL3885861, “Open TG-GATES”

Species: Rattus norvegicus
Test: Open TG-GATES - Regimen: Single
Format: toxicity, organism-based, Sprague-Dawley
Set-up: regimen Single, gender Male, age 6 weeks
Conditions: in vivo, po, route gavage; for TP / gamma-GTP / ALP / ALT / AST / BUN / CRE / DBIL / GLC / K / LDH / Na / PL / RALB / TBIL / TC / TG: tissue Plasma; for APTT / Bas / Eos / Fbg / Hb / Ht / Lym / MCHC / MCV / Mono / PT / Plat / RBC / Ret / WBC: tissue Blood; for KIDNEY_L / KIDNEY_R / KIDNEY_TOTAL: tissue Kidney; for LIVER: tissue Liver
[1] = 0 mg/kg, 24 h, dose level Control
[2] = 600 mg/kg, 24 h, dose level Low

`O=C1NC(=O)C(c2ccccc2)(c2ccccc2)N1` [PHENYTOIN] gave a TP [1] of 5.6 g/dL, a gamma-GTP [1] of 1 IU/L and a TERMINAL_BW (600 mg/kg, 3 h, dose level Low) of 210.6 g. The APTT (600 mg/kg, 3 h, dose level Low) was 16.8 s, the Bas (600 mg/kg, 3 h, dose level Low) was 0.2% and the Eos (600 mg/kg, 3 h, dose level Low) was 0.8%. It also gave a Fbg (600 mg/kg, 3 h, dose level Low) of 264.8 mg/dL, a Hb (600 mg/kg, 3 h, dose level Low) of 13.1 g/dL and a Ht (600 mg/kg, 3 h, dose level Low) of 39.2%. It also gave a Lym (600 mg/kg, 3 h, dose level Low) of 79%, an MCHC (600 mg/kg, 3 h, dose level Low) of 33.5% and an MCV (600 mg/kg, 3 h, dose level Low) of 62.3 fL. It also gave a Mono (600 mg/kg, 3 h, dose level Low) of 2.4%, a PT (600 mg/kg, 3 h, dose level Low) of 14 s and a Plat (600 mg/kg, 3 h, dose level Low) of 116 x10_4/uL. For the same molecule, the RBC (600 mg/kg, 3 h, dose level Low) was 629.4 x10_4/ul, the Ret (600 mg/kg, 3 h, dose level Low) was 8% and the KIDNEY_L (600 mg/kg, 3 h, dose level Low) was 0.9 g. The KIDNEY_R (600 mg/kg, 3 h, dose level Low) was 1 g, the KIDNEY_TOTAL (600 mg/kg, 3 h, dose level Low) was 1.9 g and the LIVER (600 mg/kg, 3 h, dose level Low) was 8.8 g. It also gave an ALP (600 mg/kg, 3 h, dose level Low) of 1512 IU/L, an ALT (600 mg/kg, 3 h, dose level Low) of 36.4 IU/L and an AST (600 mg/kg, 3 h, dose level Low) of 78.6 IU/L. It also gave a BUN (600 mg/kg, 3 h, dose level Low) of 10 mg/dL, a CRE (600 mg/kg, 3 h, dose level Low) of 0.2 mg/dL and a DBIL (600 mg/kg, 3 h, dose level Low) of 0.012 mg/dL. It also gave a GLC (600 mg/kg, 3 h, dose level Low) of 186.6 mg/dL, a K (600 mg/kg, 3 h, dose level Low) of 3.9 meq/L and an LDH (600 mg/kg, 3 h, dose level Low) of 113.2 IU/L. It also gave a Na (600 mg/kg, 3 h, dose level Low) of 141.8 meq/L, a PL (600 mg/kg, 3 h, dose level Low) of 143.4 mg/dL and an RALB (600 mg/kg, 3 h, dose level Low) of 2.5 g/dL. For the same molecule, the TBIL (600 mg/kg, 3 h, dose level Low) was 0.052 mg/dL, the TC (600 mg/kg, 3 h, dose level Low) was 82 mg/dL and the TG (600 mg/kg, 3 h, dose level Low) was 36.2 mg/dL. It also gave a TP (600 mg/kg, 3 h, dose level Low) of 5.4 g/dL, a gamma-GTP (600 mg/kg, 3 h, dose level Low) of 1.2 IU/L and a TERMINAL_BW (600 mg/kg, 6 h, dose level Low) of 208.2 g. It also gave an APTT (600 mg/kg, 6 h, dose level Low) of 18.6 s, a Bas (600 mg/kg, 6 h, dose level Low) of 0.4% and an Eos (600 mg/kg, 6 h, dose level Low) of 0.8%. For the same molecule, the Fbg (600 mg/kg, 6 h, dose level Low) was 274.8 mg/dL, the Hb (600 mg/kg, 6 h, dose level Low) was 13 g/dL and the Ht (600 mg/kg, 6 h, dose level Low) was 38.2%. It also gave a Lym (600 mg/kg, 6 h, dose level Low) of 77.6%, an MCHC (600 mg/kg, 6 h, dose level Low) of 33.9% and an MCV (600 mg/kg, 6 h, dose level Low) of 61 fL. For the same molecule, the Mono (600 mg/kg, 6 h, dose level Low) was 2.6%, the PT (600 mg/kg, 6 h, dose level Low) was 14.3 s and the RBC (600 mg/kg, 6 h, dose level Low) was 626.4 x10_4/ul. It also gave a Ret (600 mg/kg, 6 h, dose level Low) of 7.9%, a WBC (600 mg/kg, 6 h, dose level Low) of 89.4 x10_2/uL and a KIDNEY_L (600 mg/kg, 6 h, dose level Low) of 1 g. For the same molecule, the KIDNEY_R (600 mg/kg, 6 h, dose level Low) was 0.9 g, the KIDNEY_TOTAL (600 mg/kg, 6 h, dose level Low) was 1.9 g and the LIVER (600 mg/kg, 6 h, dose level Low) was 8.7 g. It also gave an ALP (600 mg/kg, 6 h, dose level Low) of 1510.8 IU/L, an ALT (600 mg/kg, 6 h, dose level Low) of 30.8 IU/L and an AST (600 mg/kg, 6 h, dose level Low) of 71.8 IU/L. It also gave a BUN (600 mg/kg, 6 h, dose level Low) of 8.6 mg/dL, a CRE (600 mg/kg, 6 h, dose level Low) of 0.2 mg/dL and a DBIL (600 mg/kg, 6 h, dose level Low) of 0.01 mg/dL. The GLC (600 mg/kg, 6 h, dose level Low) was 181.8 mg/dL, the K (600 mg/kg, 6 h, dose level Low) was 4.2 meq/L and the LDH (600 mg/kg, 6 h, dose level Low) was 89 IU/L. The Na (600 mg/kg, 6 h, dose level Low) was 142.8 meq/L, the PL (600 mg/kg, 6 h, dose level Low) was 135.6 mg/dL and the RALB (600 mg/kg, 6 h, dose level Low) was 2.5 g/dL. It also gave a TBIL (600 mg/kg, 6 h, dose level Low) of 0.052 mg/dL, a TC (600 mg/kg, 6 h, dose level Low) of 74.8 mg/dL and a TG (600 mg/kg, 6 h, dose level Low) of 26 mg/dL. For the same molecule, the TP (600 mg/kg, 6 h, dose level Low) was 5.3 g/dL, the gamma-GTP (600 mg/kg, 6 h, dose level Low) was 1.4 IU/L and the TERMINAL_BW (600 mg/kg, 9 h, dose level Low) was 206.7 g. It also gave an APTT (600 mg/kg, 9 h, dose level Low) of 16 s, a Bas (600 mg/kg, 9 h, dose level Low) of 0.2% and an Eos (600 mg/kg, 9 h, dose level Low) of 1%. The Fbg (600 mg/kg, 9 h, dose level Low) was 288.8 mg/dL, the Hb (600 mg/kg, 9 h, dose level Low) was 13.3 g/dL and the Ht (600 mg/kg, 9 h, dose level Low) was 39.5%. For the same molecule, the Lym (600 mg/kg, 9 h, dose level Low) was 73.6%, the MCHC (600 mg/kg, 9 h, dose level Low) was 33.7% and the MCV (600 mg/kg, 9 h, dose level Low) was 60.6 fL. For the same molecule, the Mono (600 mg/kg, 9 h, dose level Low) was 2.4%, the PT (600 mg/kg, 9 h, dose level Low) was 14.3 s and the Plat (600 mg/kg, 9 h, dose level Low) was 109.6 x10_4/uL. It also gave an RBC (600 mg/kg, 9 h, dose level Low) of 653.4 x10_4/ul, a Ret (600 mg/kg, 9 h, dose level Low) of 7.3% and a WBC (600 mg/kg, 9 h, dose level Low) of 74.9 x10_2/uL. The KIDNEY_L (600 mg/kg, 9 h, dose level Low) was 0.9 g, the KIDNEY_R (600 mg/kg, 9 h, dose level Low) was 0.9 g and the KIDNEY_TOTAL (600 mg/kg, 9 h, dose level Low) was 1.8 g. It also gave an LIVER (600 mg/kg, 9 h, dose level Low) of 7.7 g, an ALP (600 mg/kg, 9 h, dose level Low) of 1491.4 IU/L and an ALT (600 mg/kg, 9 h, dose level Low) of 29.6 IU/L. For the same molecule, the AST (600 mg/kg, 9 h, dose level Low) was 72.4 IU/L, the BUN (600 mg/kg, 9 h, dose level Low) was 8.2 mg/dL and the CRE (600 mg/kg, 9 h, dose level Low) was 0.2 mg/dL. The DBIL (600 mg/kg, 9 h, dose level Low) was 0.016 mg/dL, the GLC (600 mg/kg, 9 h, dose level Low) was 186 mg/dL and the K (600 mg/kg, 9 h, dose level Low) was 4 meq/L. The LDH (600 mg/kg, 9 h, dose level Low) was 80.8 IU/L, the Na (600 mg/kg, 9 h, dose level Low) was 141.2 meq/L and the PL (600 mg/kg, 9 h, dose level Low) was 125.8 mg/dL. It also gave an RALB (600 mg/kg, 9 h, dose level Low) of 2.5 g/dL, a TBIL (600 mg/kg, 9 h, dose level Low) of 0.064 mg/dL and a TC (600 mg/kg, 9 h, dose level Low) of 69.6 mg/dL. For the same molecule, the TG (600 mg/kg, 9 h, dose level Low) was 18 mg/dL, the TP (600 mg/kg, 9 h, dose level Low) was 5.4 g/dL and the gamma-GTP (600 mg/kg, 9 h, dose level Low) was 1 IU/L. It also gave a TERMINAL_BW [2] of 217.3 g, an APTT [2] of 16.9 s and a Bas [2] of 0.2%. For the same molecule, the Eos [2] was 1.2%, the Fbg [2] was 286 mg/dL and the Hb [2] was 13.7 g/dL. The Ht [2] was 40.1%, the Lym [2] was 78.4% and the MCHC [2] was 34.2%. For the same molecule, the MCV [2] was 62.9 fL, the Mono [2] was 2.4% and the PT [2] was 14.5 s. The Plat [2] was 120.7 x10_4/uL, the RBC [2] was 637.4 x10_4/ul and the Ret [2] was 7.3%. For the same molecule, the WBC [2] was 101.8 x10_2/uL, the KIDNEY_L [2] was 1 g and the KIDNEY_R [2] was 1 g. For the same molecule, the KIDNEY_TOTAL [2] was 1.9 g, the LIVER [2] was 9.7 g and the ALP [2] was 1621 IU/L. It also gave an ALT [2] of 34.6 IU/L, an AST [2] of 67.6 IU/L and a BUN [2] of 14 mg/dL. For the same molecule, the CRE [2] was 0.2 mg/dL, the DBIL [2] was 0.022 mg/dL and the GLC [2] was 177.6 mg/dL. It also gave a K [2] of 4.4 meq/L, an LDH [2] of 123.6 IU/L and a Na [2] of 141.6 meq/L. The PL [2] was 143 mg/dL, the RALB [2] was 2.6 g/dL and the TBIL [2] was 0.04 mg/dL. For the same molecule, the TC [2] was 75.4 mg/dL, the TG [2] was 95.8 mg/dL and the TP [2] was 5.6 g/dL.
